Our source for the melting point values is a melting point compilation (Tetko et al.; mined from patent text by program, amines drawn as free bases though some values may be those of a salt).

Molecules are shown by their SMILES. Residues, ends and D or L forms follow the SMILES beside them. *: point of attachment. Tos = Cc1ccc(S(=O)(=O)*)cc1

As a reminder, the melting point is the temperature, or range, at which the solid turns liquid. The compound `CSc1nc2nc3cc(C(F)(F)F)ccc3cc2[nH]1` registered a melting point greater than 270 °C.
Next, `COc1ccc(C(=O)CC(C#N)c2ccc3c(c2)OCO3)cc1OC` (configuration not stated): 159 to 161 °C.
The result for `CCCCCCN1C(=O)C(=O)c2cc(SCCCc3ccc(C(=O)O)cc3)ccc21` reads 150 to 152 °C; that for `CCOCc1cc2ccc(OCc3ccccc3)cc2o/c1=N\c1ccccc1`, 94 to 95 °C; that for `O=P(O)(O)CNC1CCCCC1`, 279 to 284 °C.
On to `CC12CCC(C1)C1(C)Oc3ccc(CCOc4ccc(C(=O)O)c(O)c4)cc3C21C` (configuration not stated), for which the melting point lay in the range of 212 to 214 °C.
As to `CC=CC1=C(O)C(=O)c2ccccc2C1=O`, the melting point is 133 to 134 °C.
The compound `CCOC(=O)c1nc2ccccn2c1S(N)(=O)=O` had a melting point of 166 to 168 °C.
Consider `O=Cc1cc2n(n1)CCOC2`, for which the melting point is 91 °C.
Take `c1csc(C2=NCC3COCCN3c3cc4c(cc32)OCCO4)c1` (configuration not stated): the melting point lay in the range of 192 to 194 °C.
The result for `COc1ccc(-c2cncc(OC3SCC(O)C(O)C3O)c2)c(Cl)c1` (configuration not stated) reads 218 °C; that for `CNC(=S)NCCN1CCC(Nc2nc3cncnc3n2Cc2ccc(F)cc2)CC1`, 206 °C; that for `CCOC(=O)C(=O)Nc1ccc(OC)c(NC(=O)C(=O)OCC)c1`, 140 to 145 °C.
With `O=C(O)COc1cc(F)c(F)cc1C(=S)NCc1ccc(Br)cc1F`, the melting point was 206 to 209 °C.
In the case of `COc1cccc(-c2cccc3c2C(=O)OC(C)(C)O3)n1`, the melting point lay within 130 to 132 °C.
As to `COC(=O)COc1ccc2cc(-c3csc(Cc4c(Cl)cccc4Cl)n3)ccc2c1`, the melting point was in the range of 174 to 177 °C.
Take `O=C(Nc1ccc([N+](=O)[O-])cc1)C(=O)N1CCC(Cc2ccc(F)cc2)CC1`: the melting point fell in the range of 157 to 159 °C.
The result for `Cc1cc(I)ccc1O` reads 64 to 65 °C.
Compound `COc1cc2nc3ccc(F)cc3sc-2cc1=O` yielded a melting point of 252 °C.
Next, `CC(C)Cn1c(=O)[nH]c2ncc(-c3ccc(O)cc3)nc21`: 290 to 291 °C.
On to `CSc1cc(Oc2cccc(C(F)(F)F)c2)nc(C(=O)NC(C)C)c1`, for which the melting point is 66 to 69 °C.
`CC(C)C[C@@H](CO)NC(=O)N1C(=O)C(OC(=O)N2CCN(c3ccncc3)CC2)(c2ccccc2OC(C)C)c2cc(Cl)ccc21` (some centres not stated) came in with a melting point of 160 to 164 °C.
The result for `COc1cc(C=CC(=O)Nc2cnc3ccccc3c2-c2ccccc2Cl)cc(OC)c1OC(C)=O` reads 237 to 238 °C; that for `N#Cc1ccc(Cl)cc1NC(CCO)c1ccccc1` (configuration not stated), 88 to 90 °C; that for `COc1ccc(NC(=O)C(F)(F)F)cc1C12CC3CC(CC(C3)C1)C2`, 166 to 167 °C.
The compound `C=CCN1C(=O)C(C)(CN2CCN(c3cccc4c3OCCO4)CC2)N=C1c1cccnc1` (configuration not stated) displayed a melting point of 102 to 105 °C.
`CC(C)(C)OC(=O)N1CCC(Cc2cn(S(=O)(=O)c3ccccc3)c3ccc(F)cc23)CC1` returned a melting point of 155 to 157 °C.
Next, `CON(C(=O)c1cn(C)nc1C(F)F)C(CF)Cc1c(Cl)cc(Cl)cc1Cl` (configuration not stated): 117 to 118 °C; `CCCCCCCCCCCCCCn1ccc(C(=O)OCC)c1`: 32 to 33 °C.
With `CCN(CC)C(=O)c1cc(OC)c(OC)cc1-c1c(C(=O)N(CC)CC)ccc2c1OCO2`, the melting point is 148 to 149 °C.
The result for `CCOC(=O)c1ccc(OC(=O)CCCC(=O)Oc2ccc(C(=O)OCC)cc2)cc1` reads 81 to 82 °C; that for `C[C@]12CCC(=O)C=C1CC[C@@H]2c1cn(Cc2ccccc2)nn1`, 122 to 125 °C; that for `CC1=C(Cn2ccnc2)CCc2ccc(C(=O)O)cc21`, 278 to 280 °C.
In the case of `NC(=O)c1sc2ncnc(-c3cccc(NC(=O)Cc4ccccc4)c3)c2c1N`, the melting point lay in the range of 255 to 258 °C.
Next, `NNC(=O)C(CC1CC2CCN1CC2)(c1ccccc1)c1ccccc1` (configuration not stated): 158 to 160 °C; `Cc1cc(OCCN2CCc3ccc(NS(C)(=O)=O)cc3CC2)ccc1NS(C)(=O)=O`: 173 to 174 °C; `CCCCCCCNC(=O)Nc1ccc([N+](=O)[O-])cc1C(=O)NC1CCN(C(c2ccccc2)c2ccccc2)CC1`: 165 to 166 °C.
`Cn1[nH]c(=O)n(-c2cc(F)c(C(=O)Cl)cc2F)c1=O` came in with a melting point greater than 250 °C.
The result for `CC(C#N)c1ccc2oc(-c3ccccc3)nc2c1` (configuration not stated) reads 118 to 120 °C.
Next, `COc1cc2c(cc1C(F)(F)F)c(C(=O)Nc1cccnc1)cn2C`: greater than 250 °C.
In turn, `c1ccc([C@H]2CC[C@@H](Oc3ncnc4c3CCCC4)CC2)cc1` yielded a melting point of 109 °C.
The result for `CC(C)(C)c1cc(NC(=O)c2cccc(C(=O)O)c2)cc(C(C)(C)C)c1O` reads 253 to 257 °C.
The result for `Cc1ccc(S(=O)(=O)N2CCC[C@H]2C(=O)N[C@@H](CCC(N)=O)C(=O)O)cc1` (Tos-Pro-Gln-OH) reads 45 to 55 °C.
`CCCCC(CC(=O)Nc1cc(C(N)=O)ccc1C(C)(C)C)c1cc(Cl)c(OCCCOC)cc1OC` (configuration not stated): the melting point was 176 to 190 °C.
`Cc1nc(N2CCN(Cc3ccc(OC(F)(F)F)cc3)C2=O)sc1C(=O)NCCc1cccnc1`: the melting point is 172 to 173 °C.
`CCOC(=O)C=Cc1ccc(OCC)c([N+](=O)[O-])c1` registered a melting point of 90 to 92 °C.
Compound `CN(C1CN(C(=O)Nc2ccc(C(F)(F)F)cc2)N=C1c1ccc(Cl)cc1)S(C)(=O)=O` (configuration not stated) gave a melting point of 105 to 112 °C.
`CC(=O)OC1OCC[C@@H]1NC(=O)[C@H](CC(C)C)NC(=O)OCc1ccccc1` (some centres not stated) displayed a melting point of 158 to 159 °C.
In turn, `O=C(NCCCCCCO)OCc1ccccc1` had a melting point of 67 to 68 °C.
For `O=C(OC1COC(n2cc(CCN3C(=O)c4ccccc4C3=O)c(=O)[nH]c2=O)C(OC(=O)c2ccccc2)C1OC(=O)c1ccccc1)c1ccccc1` (configuration not stated), the melting point turned out to be 124 °C.
For `COC(=O)c1scc(-c2ccccc2)c1N`, the melting point fell in the range of 64 to 66 °C.
The result for `COc1cccn2c(=O)c(CCN3CCc4oc5ccccc5c4C3)c(C)nc12` reads 151 °C; that for `CCCCCCC(C(C)O)n1c(C)nc(C(N)=O)c1N` (configuration not stated), 142 to 144 °C; that for `Cc1cc(Br)cnc1CCCCN`, 35 to 37 °C.
Consider `Cc1ccc([N+](=O)[O-])c(C(=O)Nc2nnn[nH]2)c1`, for which the melting point lay in the range of 278 to 279 °C.
As to `Cc1cc(SC2=C(O)C[C@@](CCc3ccccc3)(C(C)C)OC2=O)c(C(C)C)c2sc(N)nc12`, the melting point was in the range of 160 to 162 °C.
`COc1ccc(C2=Nc3cccnc3Nc3ccccc32)cc1` showed a melting point of 198 to 200 °C.
Turning to `Cc1nn(-c2cncc(F)c2)cc1N`, the melting point lay in the range of 136 to 138 °C.
For the compound `O=C(O)c1ccc(-c2cc(-c3ccccc3)no2)cc1`, the melting point was greater than 300 °C.
For `CCOC(=O)c1nc(O)sc1-c1ccncc1`, the melting point was in the range of 204 to 206 °C.
The result for `CS(=O)(=O)OCCCc1ccc(SCc2coc(/C=C/c3ccccc3)n2)cc1` reads 97 to 98 °C; that for `CNC(=O)/C(=N/OC)c1ccccc1COc1cccc(SC)n1`, 130 to 132 °C.
With `C=C(Nc1nc(-c2ccccc2)c(-c2nc3ccccc3c(=O)n2-c2ccc(Cl)cc2)s1)c1ccco1`, the melting point lay within 270 to 274 °C.
Turning to `CN(C)C(=O)CC1Cc2ccccc2NC1=O` (configuration not stated), the melting point was 172 to 173 °C.
Next, `CC1(C)CC(Nc2nc(NC3CC(C)(C)N(O)C(C)(C)C3)nc(N(C3CC(C)(C)N(O)C(C)(C)C3)C3CC(C)(C)N(O)C(C)(C)C3)n2)CC(C)(C)N1O`: 243 to 246 °C; `NC(=S)NN=C(CCCNC(=O)C1CCCCC1)c1ccccc1`: 158 to 159 °C; `COc1ccc(C(=O)Nc2ccccc2)cc1NS(=O)(=O)c1ccc(F)cc1`: 209 to 211 °C.
In the case of `Cc1cc(C(O)CN(C)Cc2cc3c(=O)c(C(=O)NCc4ccc(Cl)cc4)cn(C)c3o2)oc1C` (configuration not stated), the melting point turned out to be 140 °C.
In the case of `COc1cc(C2CCN(C[C@@H](C)O)CC2)ccc1Nc1ncc2ccc(-c3ccccc3N(C)S(C)(=O)=O)n2n1`, the melting point is 91 to 103 °C.
Turning to `CCCn1nc(-c2ccncc2)nc1-c1ccncc1`, the melting point fell in the range of 88 to 89 °C.
`O=C(Nc1ccc(-n2nc(C(F)(F)F)cc2C(F)(F)F)cc1)c1ccc(Br)cc1` registered a melting point of 205 to 207 °C.
Regarding `Cc1cc(NS(=O)(=O)c2ccc(Nc3nc(OCC4CCCCC4)c4nc[nH]c4n3)cc2)nc(C)n1`, the melting point came to 233 °C.
The compound `O=C(NC(=O)C(c1ccccc1)c1ccccc1)OCc1ccccc1` yielded a melting point of 100 to 101 °C.
`CC(C=[N+]([O-])C(C)(C)C)c1ccccc1` (configuration not stated): the melting point worked out at 56 °C.
With `CCCc1c(SCCCOc2ccc(C(C)O)c(OCCCC(=O)O)c2CCC)ccc(C(C)=O)c1O` (configuration not stated), the melting point lay in the range of 85 to 86 °C.
`NS(=O)(=O)c1ccc(-c2[nH]c3ccccc3c2-c2ccccc2)cc1` yielded a melting point of 231 to 232 °C.
Compound `CCOC(=O)c1cc(C(C)C)n(C)n1` showed a melting point of 70.5 to 71 °C.
On to `CN(C)C1CC=C(c2ccccc2Cc2ccccc2)CC1` (configuration not stated), for which the melting point was 44 to 45 °C.
`Cn1ncc(-c2ccc(OCCCCl)cc2)cc1=O` showed a melting point of 90 to 91 °C.
The compound `Cc1ccc(Nc2nc(-n3nc(C)cc3C)nc3ccccc23)cc1` came in with a melting point of 210 to 216 °C.
The result for `CNC(=O)[C@H](Cc1ccc2ccccc2c1)NC(=O)C(CCOc1c(F)c(F)c(F)c(F)c1F)CC(=O)O` (some centres not stated) reads 68 to 69 °C; that for `Cc1cc(C)cc(NC(=O)NCc2ccc3c(c2)CN(C2CCC(=O)NC2=O)C3=O)c1` (configuration not stated), 289 to 291 °C; that for `Cn1c(/C=C/C2CC(O)CC(=O)O2)c(-c2ccccc2)c2ccccc2c1=O` (configuration not stated), 190 to 193 °C.
With `c1ccc(Cn2cnc3c(OC4CN5CCC4CC5)nccc32)cc1` (configuration not stated), the melting point was 162 to 183 °C.
Compound `COC(=O)C1(n2c(=O)[nH]c3ccccc3c2=O)CCCC1` came in with a melting point of 164 to 165 °C.
Compound `Nc1cc(SCc2ccc(F)cc2)nn1-c1c(Cl)cc(C(F)(F)F)cc1Cl` yielded a melting point of 112 to 113 °C.
`N#Cc1cccc(C(=O)c2ccc(S)cc2)c1` came in with a melting point of 126 °C.
